Test results reported in patent US5273972A, “[(2-diakylaminomethyl)-3-quinuclidinyl]-benzamides and benzoates” (priority 1992, dated 1993).

Experiments:
[1] = system: cisplatin-induced emesis; test: Cisplatin-induced emesis in dogs (antiemetic); format: in vivo, dog; details: for inhibition in vivo at 1 mg/kg: Canis lupus familiaris, iv, 5 h, read-out: % inhibition of cisplatin-induced emesis
Experimental: The procedure used to test compounds of the present invention for antiemetic properties is a modification of the method of Gylys et al, Res. Commun, Chem. Pathol. Pharm., 23, 61(1979).
Adult, mongrel, unfasted dogs of both sexes were randomly assigned into treatment groups, with each treatment group consisting of four dogs. On the dosing day all dogs were given cisplatin, 3.0 mg/kg, intravenously. Sixty minutes later, the dogs in the control treatment group were given deionized water, 0.1 ml/kg intravenously. The dogs in the test group were given a test compound at an appropriate dose intravenously. All doses were administered as a solution by means of a syringe and needle, and each dog's emetic episodes were recorded for 5 hours after the administration of cisplatin.

[2] = system: emesis; details: reported by Mikhlina et al, Khim-Farmastsevt. Zh. 10 (1976); cited from earlier work
[3] = system: dopamine D2 -receptor; details: reported in USSR Pat. No. SU-414-261; cited from earlier work
[4] = system: gastric emptying; test: Gastric emptying of a test meal in fasted rats; format: in vivo; details: fasted rat, 9.0 mg/kg IP 30 min before test meal; measured 60 min after the meal
Experimental: The procedure used to test compounds of the present invention for gastric motility enhancing activity was that of Droppleman et al, J. Pharmacol. Methods, 4, 227(1980). Each animal was dosed intraperitoneally (9.0 mg/kg) with a test compound or control. After 30 minutes each animal was given 3 ml of a methylcellulose-based test meal formulation. Sixty minutes after administration of the test meal, each animal was killed by cervical dislocation, and the stomach was removed and weighed. The stomach was cut open, rinsed and dried, and reweighed. The difference between the full and empty weights (amount of meal remaining in stomach) was subtracted from the original test meal weight to determine the meal amount emptied from the stomach during the test period.

[5] = system: 5-HT (serotonin)-induced contractions of the guinea pig ileum; test: Blockade of serotonin-induced contractions of guinea pig ileum (5-HT antagonist activity); format: cell-based; details: 10^-6 M serotonin
[6] = system: exploratory light/dark behavior; test: Anxiolytic model, two-compartment exploratory light/dark test in mice; format: in vivo; details: mouse, 10 mg/kg IP, 5 minute period; vehicle control 29
Description: The method has been described by Young and Johnson, Soc. Neurosci. Abs., 1988, 14, 207 and is a modification of the procedures described by Costall and Naylor, Brit. J. Pharmacol. 1988, 93, 985-993; and Crawley, Pharmacol. Biochem. and Behav. 1981, 15, 695-699. A two compartment light-dark activity monitoring device (Digiscan Model RXWZCM16, Omnitech Electronics,Inc., Columbus, Ohio) is used. A 90W light source located 30 cm above the box provides light to the apparatus. Behavioral testing was conducted in a sound attenuated, darkened room illuminated with a red light (25W red bulb) only.
Each animal (mouse) received a dose of either the test, reference, or control article. The mouse was placed at the center of the illuminated area and its behavioral activity tallied over a 5 minute period by use of a Digiscan analyzer. Behavioral variables recorded include: the time spent in the lit and dark areas, the number of rearings in the lit and dark areas, the number of locomotor activity counts in the lit and dark areas, the number of transitions between the lit and dark or dark and lit areas, rearing time in the lit and dark areas, the latency to make the first transition from the lit to the dark areas, locomotor time in the lit and dark areas, and resting time in the lit and dark areas. Appropriate statistical analyses for each measure were performed. […]

## 2-(1-Piperidinylmethyl)-1-azabicyclo[2.2.2]oct-3-yl 1-methyl-1H-indole-3-carboxylate cis isomer [XIII (cis isomer)]
[1]; dog, 1.0 mg/kg IV given 60 min after cisplatin 3.0 mg/kg IV, emetic episodes recorded for 5 hours
  % inhibition of cisplatin-induced emesis: 34%

## COc1ccc(S(N)(=O)=O)cc1C(=O)NC1CN2CCC1CC2 (stereo not drawn) [5-aminosulfonyl-N-(1-azabicyclo-[2.2.2]oct-3-yl)-2-methoxybenzamide]
[2]
  anti-emetic activity: not to have anti-emetic activity
[3]
  neuroleptic activity: neuroleptic activity

## COc1cc(N)c(Cl)cc1C(=O)NC1C2CCN(CC2)C1CN(C)C (stereo not drawn) [Example I, 4-Amino-5-chloro-N-[2-[(dimethylamino)methyl]-1-azabicyclo[2.2.2]oct-3-yl]-2-methoxy-benzamide]
[1]
  inhibition in vivo at 1 mg/kg: 96%
[4]
  % change in meal emptied: +36%

## COc1cc(N)c(Cl)cc1C(=O)NC1C2CCN(CC2)C1CN1CCCCC1 (stereo not drawn) [Example IV, 4-Amino-5-chloro-2-methoxy-N-[2-(1-piperidinylmethyl)-1-azabicyclo[2.2.2]oct-3-yl]benzamide]
[1]
  inhibition in vivo at 1 mg/kg: 94%
[5]
  pA2 against serotonin-induced contractions: 6.6

## CNc1cc(OC)c(C(=O)NC2C3CCN(CC3)C2CN2CCCCC2)cc1Cl (stereo not drawn) [Example V, 5-Chloro-2-methoxy-4-(methylamino)-N-[2-(1-piperidinylmethyl)-1-azabicyclo[2.2.2]oct-3-yl]benzamide]
[1]
  inhibition in vivo at 1 mg/kg: 99%
[6]
  % Time Spent In Lit Area: 51%

## CSCCOc1cc(N)c(Cl)cc1C(=O)NC1C2CCN(CC2)C1CN(C)C (stereo not drawn) [II, 4-Amino-5-chloro-N-[2-[(dimethylamino)methyl]-1-azabicyclo[2.2.2]oct-3-yl]-2-[2-(methylthio)ethoxy]benzamide]
[1]
  inhibition in vivo at 1 mg/kg: 47%

## CNc1cc(OC)c(C(=O)NC2C3CCN(CC3)C2CN(C)C)cc1Cl (stereo not drawn) [III, 5-Chloro-N-[2-[(dimethylamino)methyl]-1-azabicyclo[2.2.2]oct-3-yl]-2-methoxy-4-(methylamino)benzamide]
[1]
  inhibition in vivo at 1 mg/kg: 73%

## COc1cc(N)c(Cl)cc1C(=O)NC1C2CCN(CC2)C1CN1CCCC1 (stereo not drawn) [VI, 4-Amino-5-chloro-2-methoxy-N-[2-(1-pyrrolidinylmethyl)-1-azabicyclo[2.2.2]oct-3-yl]benzamide]
[1]
  inhibition in vivo at 1 mg/kg: 87%
[4]
  % change in meal emptied: +33%

## CNc1cc(OC)c(C(=O)NC2C3CCN(CC3)C2CN2CCCC2)cc1Cl (stereo not drawn) [VII, 5-Chloro-2-methoxy-4-(methylamino)-N-[2-(1-pyrrolidinylmethyl)-1-azabicyclo[2.2.2]oct-3-yl]benzamide]
[1]
  inhibition in vivo at 1 mg/kg: 87%

## COc1cc(N)c(Cl)cc1C(=O)NC1C2CCN(CC2)C1CN1CCOCC1 (stereo not drawn) [XI, 4-Amino-5-chloro-2-methoxy-N-[2-(4-morpholinylmethyl)-1-azabicyclo[2.2.2]oct-3-yl]benzamide]
[1]
  inhibition in vivo at 1 mg/kg: 21%
